Peptide text beside a SMILES is read from it.
Legend:
fibroblasts = experiment: MTT cell proliferation assay, fibroblasts; assay type: cell-based, human; conditions: 100 μM, 72-hour incubation
Procedure: (§1) Proliferation rates for three human cell lines (epidermal progenitors, melanoblasts, and fibroblasts) were determined using a TACS® MTT Cell Proliferation Kit. Cells were seeded at 2.5×10^4/well in 96-well plates in a humidified atmosphere with 5 percent CO2 at 37 degrees Celsius. Twenty-four hours later, the decapeptides were added to the corresponding wells at varying concentrations and incubated for 72 hours. The remainder of the procedure was performed following the manufacturer's protocol.

[1] = MTT cell proliferation assay, fibroblasts; assay type: cell-based, human; conditions: human, MTT, 72 h, read-out: fibroblast proliferation rate after 72 hours
Procedure: as §1

SIRT5 = SIRT5 transcription, semi-quantitative RT-PCR in human epidermal progenitors; assay type: cell-based; conditions: 72 h
Procedure: (§2) Human neonatal epidermal progenitors (Thermo Fisher Scientific, NY) were seeded in 6-well plates at a density of 2×10^5 cells/well. Each well received 2 ml of Epilife media containing 60 μM calcium chloride (Thermo Fisher Scientific, NY). Plates were incubated in a humidified chamber at 37 degrees Celsius and 5 percent CO2. Twenty-four hours later, cells were treated with various concentrations of oxyresveratrol or decapeptide-12 dissolved in PBS containing 5 percent DMSO. Control wells received vehicle only (5 percent DMSO and PBS). Final concentration of DMSO in each well was 0.05 percent.
(§3) After a 72 hour incubation period, cells were trypsinized and total RNA extracted, using RNeasy kit (Qiagen, Valencia, Calif.) according to the manufacturer's protocol.
(§4) RNA concentration was determined using nanodrop (Thermo fisher scientific, NY). Two μg of total RNA were used to synthesize cDNA using oligo dT primers and TaqMan reverse transcription reagents (Thermo fisher scientific, NY). The reaction was carried out in DNA Engine Peltier Thermal Cycler (Bio-Rad, Hercules, Calif.). The annealing temperature was 25 degrees Celsius for 10 minutes, followed by first strand synthesis at 48 degrees Celsius for 1 hour, and heat inactivation at 95 degrees Celsius for 5 minutes.
(§5) The SIRT1-7 primers (table 1) were designed using Primer3. The semi-quantitative PCR reactions were performed on a DNA Engine Peltier Thermo Cycler (Bio-Rad, Hercules, Calif.). PCR was carried under the following conditions: denaturation at 94 degrees Celsius for 2 minutes and primer extension at 54 degrees Celsius for 30 seconds in 34 cycles for SIRT 1-7 and the housekeeping gene 18S.
(§6) Samples were run and resolved on a 1.5 percent agarose gel containing 0.5 μg/ml of ethidium bromide and imaged using the FluorChem HD2 Imaging System (Protein simple, San Jose, Calif.). Densitometry analysis was carried out using the AlphaEase FC software (Protein simple, San Jose, Calif.). Intensity ratios were calculated as the intensity value for each gene divided by the intensity value of the internal control gene 18S.
(§7) The effect of the decapeptides P4, P4A, P4B, and P4C upon the transcription levels of sirtuins 1-7 was evaluated. Table 4 summarizes transcription levels for all four decapeptides with the corresponding genes, at tested concentrations of: 10, 30, 50, 100, and 300 (all in μM).

melanoblasts = experiment: MTT cell proliferation assay, melanoblasts; assay type: cell-based, human; conditions: 100 μM, 72-hour incubation
Method in brief: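 Human fibroblasts and melanoblasts were seeded at 2.5×10^4/well at 37 degrees Celsius, 5 percent CO2. Proliferation was read by MTT kit per manufacturer's protocol.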

[2] = Trypan blue cell viability, 7 days, fibroblasts; assay type: cell-based; conditions: human, relative to control, read-out: fibroblast viability after 7 days
Procedure: The effect of each of the decapeptides upon cell viability was also tested. In particular, cells were incubated with the decapeptide at various concentrations and then counted for viability relative to the control (untreated cells) using trypan blue. Cytotoxicity was measured according to the following formula:
[1−(# of cells in control−# of live cells in test sample)/# of cells in control]×100 percent.

SIRT7 = SIRT7 transcription, semi-quantitative RT-PCR in human epidermal progenitors; assay type: cell-based; conditions: 72 h
Procedure: as §2, §3, §4, §5, §6, §7

For `CCCCCCCCCCCCCCCC(=O)N[C@@H](Cc1ccc(O)cc1)C(=O)N[C@@H](CCCNC(=N)N)C(=O)N[C@@H](CO)C(=O)N[C@@H](CCCNC(=N)N)C(=O)N[C@@H](CCCCN)C(=O)N[C@@H](Cc1ccc(O)cc1)C(=O)N[C@@H](CO)C(=O)N[C@@H](CO)C(=O)N[C@@H](Cc1c[nH]c2ccccc12)C(=O)N[C@@H](Cc1ccc(O)cc1)C(N)=O` [P4A, Palmitoyl-YRSRKYSSWY-amide] (HELM PEPTIDE1{[CCCCCCCCCCCCCCCC(=O)[*:2]].Y.R.S.R.K.Y.S.S.W.Y.[am]}$$$$V2.0), the “reduction in the proliferation rate” value (fibroblasts) was 3%, the viability at 72 h, 3 µM ([1]; 3 μM) was 100% and the viability at 72 h, 10 µM ([1]; 10 μM) was 99 ± 1%. The viability at 72 h, 30 µM ([1]; 30 μM) was 98 ± 1%, the viability at 72 h, 50 µM ([1]; 50 μM) was 98 ± 1% and the viability at 72 h, 100 µM ([1]; 100 μM) was 97 ± 2%. The viability at 72 h, 300 µM ([1]; 300 μM) was 97 ± 2%, the viability at 72 h, 500 µM ([1]; 500 μM) was 96 ± 2% and the viability at 72 h, 1000 µM ([1]; 1000 μM) was 95 ± 2%. The “SIRT5 transcription increase relative to control” value (SIRT5; 10 μM) was 13 ± 2%, the “SIRT5 transcription increase relative to control” value (SIRT5; 30 μM) was 12 ± 2% and the “SIRT5 transcription increase relative to control” value (SIRT5; 50 μM) was 10 ± 3%. For the same molecule, the “SIRT5 transcription increase relative to control” value (SIRT5; 100 μM) was 47 ± 7%, the “SIRT5 transcription increase relative to control” value (SIRT5; 300 μM) was 29 ± 4% and the “reduction in the proliferation rate” value (melanoblasts) was 3%. It also gave a viability at 168 h, 3 µM ([2]; 3 μM) of 100%, a viability at 168 h, 10 µM ([2]; 10 μM) of 98.9 ± 1% and a viability at 168 h, 30 µM ([2]; 30 μM) of 98.4 ± 1%. It also gave a viability at 168 h, 50 µM ([2]; 50 μM) of 98 ± 1%, a viability at 168 h, 100 µM ([2]; 100 μM) of 97.4 ± 2% and a viability at 168 h, 300 µM ([2]; 300 μM) of 96.6 ± 2%. For the same molecule, the viability at 168 h, 500 µM ([2]; 500 μM) was 95.5 ± 2%, the viability at 168 h, 1000 µM ([2]; 1000 μM) was 94.3 ± 2% and the “SIRT7 transcription increase relative to control” value (SIRT7; 10 μM) was 29 ± 6%. For the same molecule, the “SIRT7 transcription increase relative to control” value (SIRT7; 30 μM) was 33 ± 5%, the “SIRT7 transcription increase relative to control” value (SIRT7; 50 μM) was 52 ± 4% and the “SIRT7 transcription increase relative to control” value (SIRT7; 100 μM) was 87 ± 6%. For the same molecule, the “SIRT7 transcription increase relative to control” value (SIRT7; 300 μM) was 113 ± 2%.
